# In US8163793B2, “Proline derivatives” (Hoffman-La Roche Inc., priority 2009, dated 2012):
# Structures can show the parent of a compound that is named as a salt.
# Experiments:
# Cathepsin S = Cathepsin S (UniProt P25774); experiment: Cathepsin enzyme inhibition assay (fluorogenic peptide substrate Z-Val-Val-Arg-AMC), Cathepsin S; type: biochemical, human and mouse; settings: enzyme 1 nM, substrate 20 μM, pH 6.5; read-out: CatS IC50
# Procedure, shortened: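 Compounds were combined with 1 nM human or mouse enzyme, and substrate then started the reaction. The buffer was potassium phosphate (100 mM, pH 6.5) containing EDTA-Na 5 mM, Triton X-100 0.001% and […] 5 mM.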
# Cat L = Cat L (UniProt P07711); experiment: Cathepsin enzyme inhibition assay (fluorogenic peptide substrate Z-Val-Val-Arg-AMC), Cathepsin L; type: biochemical, human and mouse; settings: enzyme 1 nM, substrate 20 μM, pH 6.5; read-out: CatL IC50
# Procedure, shortened: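 Fluorogenic cleavage of Z-Val-Val-Arg-AMC (20 μM) by 1 nM Cat L was monitored at ex 360/em 465 nm for 20 min, the linear phase. The buffer was 100 mM potassium phosphate pH 6.5 with 5 mM EDTA and DTT. IC50 values were derived by standard methods, in μM.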
Compound,IC50 (Cathepsin S) [nM],IC50 (Cat L) [nM]
"Cc1cc(N2C[C@H](S(=O)(=O)c3ccc(OCC(F)(F)F)cc3C(F)(F)F)C[C@@H]2C(=O)NC2(C#N)CC2)n(C2CCC2)n1 [Example 392, (2R,4R)-1-(2-Cyclobutyl-5-methyl-2H-pyrazol-3-yl)-4-[4-(2,2,2-trifluoro-ethoxy)-2-trifluoromethyl-benzenesulfonyl]-pyrrolidine-2-carboxylic acid (1-cyano-cyclopropyl)-amide]",0.91,≥ 25000
"COCCOc1ccc(S(=O)(=O)[C@@H]2C[C@@H](C(=O)NC3(C#N)CC3)N(C(=O)C3(c4ccc(Cl)cc4)CC3)C2)c(Cl)c1 [Example 342, (2S,4R)-4-[2-Chloro-4-(2-methoxy-ethoxy)-benzenesulfonyl]-1-[1-(4-chloro-phenyl)-cyclopropanecarbonyl]-pyrrolidine-2-carboxylic acid (1-cyano-cyclopropyl)-amide]",0.08,49.5
"CC(Oc1ccc(S(=O)(=O)[C@@H]2C[C@@H](C(=O)NC3(C#N)CC3)N(C=O)C2)c(Cl)c1)C(F)(F)F (stereo partly drawn) [Example 150, (2S,4R)-4-[2-Chloro-4-(2,2,2-trifluoro-1-methyl-ethoxy)-benzenesulfonyl]-1-formyl-pyrrolidine-2-carboxylic acid (1-cyano-cyclopropyl)-amide]",1.7,27900
"CC(Oc1ccc(S(=O)(=O)[C@@H]2C[C@@H](C(=O)NC3(C#N)CC3)N(C(=O)OC(C)(C)C)C2)c(Cl)c1)C(F)(F)F (stereo partly drawn) [Example 122, (2S,4R)-4-[2-Chloro-4-(2,2,2-trifluoro-1-methyl-ethoxy)-benzenesulfonyl]-2-(1-cyano-cyclopropylcarbamoyl)-pyrrolidine-1-carboxylic acid tert.-butyl ester]",9.4,23800
"N#CC1(NC(=O)[C@@H]2C[C@@H](S(=O)(=O)c3ccc(Cl)cc3Cl)CN2)CC1 [Example 15, (2S,4R)-4-(2,4-Dichloro-benzenesulfonyl)-pyrrolidine-2-carboxylic acid (1-cyano-cyclopropyl)-amide Hydrochloride]",4.5,4920
"N#CC1(NC(=O)[C@@H]2C[C@@H](S(=O)(=O)c3ccccc3Cl)CN2S(=O)(=O)c2ccc(-c3cnco3)cc2)CC1 [Example 323, (2S,4R)-4-(2-Chloro-benzenesulfonyl)-1-(4-oxazol-5-yl-benzenesulfonyl)-pyrrolidine-2-carboxylic acid (1-cyano-cyclopropyl)-amide]",0.44,4820
"CC(C)(C)C(=O)N1C[C@H](S(=O)(=O)c2ccc(OCC(F)(F)F)cc2Cl)C[C@H]1C(=O)NC1(C#N)CC1 [Example 176, (2S,4R)-4-[2-Chloro-4-(2,2,2-trifluoro-ethoxy)-benzenesulfonyl]-1-(2,2-dimethyl-propionyl)-pyrrolidine-2-carboxylic acid (1-cyano-cyclopropyl)-amide]",0.98,35800
"Cc1cc(N2C[C@H](S(=O)(=O)c3ccc(N4CCN(C(C)(C)C)CC4)cc3Cl)C[C@H]2C(=O)NC2(C#N)CC2)n(C2CCOCC2)n1 [Example 481, (2S,4R)-4-[4-(4-tert-Butyl-piperazin-1-yl)-2-chloro-benzenesulfonyl]-1-[5-methyl-2-(tetrahydro-pyran-4-yl)-2H-pyrazol-3-yl]-pyrrolidine-2-carboxylic acid (1-cyano-cyclopropyl)-amide]",0.6,1270
"N#CC1(NC(=O)[C@H]2C[C@H](S(=O)(=O)c3ccccc3C(F)(F)F)CN2c2ccc(F)c(Cl)c2)CC1 [Example 395, (2R,4S)-1-(3-Chloro-4-fluoro-phenyl)-4-(2-trifluoromethyl-benzenesulfonyl)-pyrrolidine-2-carboxylic acid (1-cyano-cyclopropyl)-amide]",155,≥ 25000
"Cc1cc(N2C[C@H](S(=O)(=O)c3ccc(OCC(F)(F)F)cc3C(F)(F)F)C[C@H]2C(=O)NC2(C#N)CC2)n(C2CCC2)n1 [Example 391, (2S,4R)-1-(2-Cyclobutyl-5-methyl-2H-pyrazol-3-yl)-4-[4-(2,2,2-trifluoro-ethoxy)-2-trifluoromethyl-benzenesulfonyl]-pyrrolidine-2-carboxylic acid (1-cyano-cyclopropyl)-amide]",0.22,16700
"N#CC1(NC(=O)[C@@H]2C[C@@H](S(=O)(=O)c3ccc(Cl)cc3Cl)CN2c2ncccc2C(F)(F)F)CC1 [Example 188, (2S,4R)-4-(2,4-Dichloro-benzenesulfonyl)-1-(3-trifluoromethyl-pyridin-2-yl)-pyrrolidine-2-carboxylic acid (1-cyano-cyclopropyl)-amide]",6.4,16700
"N#CC1(NC(=O)[C@@H]2C[C@@H](S(=O)(=O)c3ccccc3Cl)CN2C(=O)C2(c3cc(F)c(Cl)cc3Cl)CC2)CC1 [Example 461, (2S,4R)-4-(2-Chloro-benzenesulfonyl)-1-[1-(2,4-dichloro-5-fluoro-phenyl)-cyclopropanecarbonyl]-pyrrolidine-2-carboxylic acid (1-cyano-cyclopropyl)-amide]",0.985,22.5
"N#CC1(NC(=O)[C@@H]2C[C@@H](S(=O)(=O)c3ccccc3OC(F)(F)F)CN2)CC1 [Example 13, (2S,4R)-4-(2-Trifluoromethoxy-benzenesulfonyl)-pyrrolidine-2-carboxylic acid (1-cyano-cyclopropyl)-amide Hydrochloride]",46.5,≥ 25000
"Cc1cc(N2C[C@H](S(=O)(=O)c3ccccc3C(F)(F)F)C[C@H]2C(=O)NC2(C#N)CC2)n(-c2ccc(F)cc2)n1 [Example 195, (2S,4R)-1-[2-(4-Fluoro-phenyl)-5-methyl-2H-pyrazol-3-yl]-4-(2-trifluoromethyl-benzenesulfonyl)-pyrrolidine-2-carboxylic acid (1-cyano-cyclopropyl)-amide]",3.6,≥ 25000
"CCN1CCN(c2ccc(S(=O)(=O)[C@@H]3C[C@@H](C(=O)NC4(C#N)CC4)N(C(=O)C4(C(F)(F)F)CC4)C3)c(Cl)c2)CC1 [Example 142, (2S,4R)-4-[2-Chloro-4-(4-ethyl-piperazin-1-yl)-benzenesulfonyl]-1-(1-trifluoromethyl-cyclopropanecarbonyl)-pyrrolidine-2-carboxylic acid (1-cyano-cyclopropyl)-amide formiate]",0.3,2480
"N#CCNC(=O)C12CC(S(=O)(=O)c3ccccc3)CN1CC(F)(F)C2 (stereo not drawn) [Example 115, 6-Benzenesulfonyl-2,2-difluoro-tetrahydro-pyrrolizine-7a-carboxylic acid cyanomethyl-amide]",48,3470
"CC(C)(C)OC(=O)N1C[C@H](S(=O)(=O)c2c(Cl)cccc2Cl)C[C@H]1C(=O)NC1(C#N)CC1 [Example 5, (2S,4R)-2-(1-Cyano-cyclopropylcarbamoyl)-4-(2,6-dichloro-benzenesulfonyl)-pyrrolidine-1-carboxylic acid tert-butyl ester]",0.8,9770
Cc1cc(-n2nc(C)cc2N2C[C@H](S(=O)(=O)c3ccccc3C(F)(F)F)C[C@H]2C(=O)NC2(C#N)CC2)cc(C)n1 [Example 351],19.5,≥ 25000
